The text below walks through data of US20190022165A1, “METHODS AND COMPOSITIONS FOR THE TREATMENT AND PREVENTION OF PULMONARY ARTERIAL HYPERTENSION” (STEALTH BIOTHERAPEUTICS CORP, priority 2016, published 2019).

Series [1] deals with several mammalian cell types. Particulars: cited from earlier work.
The test system of series [2] is heart failure subjects with reduced ejection fraction (HFrEF≤35%). Nature of the series: Single ascending dose trial, 2-D echocardiography: right ventricular systolic pressure (RVSP). In kind it is in vivo, human. As for the experimental part: (§1) A single-center, randomized, double-blind, placebo-controlled, single ascending dose trial of D-Arg-2′6′-Dmt-Lys-Phe-NH2 was performed in heart failure subjects aged 45-80 years (n=36) with reduced ejection fraction (HFrEF≤35%). Three sequential dose-escalation cohorts were enrolled and administered a single intravenous (IV) dose of D-Arg-2′6′-Dmt-Lys-Phe-NH2 by a 4-hour infusion. In each cohort, 8 subjects were randomly assigned to receive D-Arg-2′6′-Dmt-Lys-Phe-NH2 (active group) and 4 to receive placebo (placebo group infused with 0.9% saline solution in the same manner as the D-Arg-2′6′-Dmt-Lys-Phe-NH2 active group). Eligible subjects were admitted to the research unit on Day 1, were randomized and received the study drug infusion on Day 2 and were discharged on Day 3. Subjects returned to the research unit on Day 7 (+3) for follow-up. The dose levels of D-Arg-2′6′-Dmt-Lys-Phe-NH2 in Cohorts 1, 2, and 3 were 0.005, 0.05, and 0.25 mg/kg/hour, respectively.
(§2) A single dose of the aromatic-cationic peptide, D-Arg-2′6′-Dmt-Lys-Phe-NH2, was administered intravenously (IV) at 0.005 mg/kg/hour (Cohort 1; low dose), 0.05 mg/kg/hour (Cohort 2; intermediate dose), and 0.25 mg/kg/hour (Cohort 3; high dose) over 4 hours at 60 mL/hour.
(§3) Echocardiograms (2-D) were performed on Day 2 at pre-dose (0-hr), mid-dose (2-hr), end-dose (4-hr), and 6 hours, 8 hours, 12 hours after infusion initiation, and at Day 3 at 24 hours after infusion initiation in every subject. Primary echo endpoints included end-diastolic volume (EDV) and EDV index, and end-systolic volume (ESV) and ESV index. Secondary echo endpoints included left atrial (LA) volume, right ventricular fractional area change (RV FAC), and right ventricular systolic pressure (RVSP). Exploratory echo endpoints included global longitudinal strain.
(§4) All statistical analyses, summary tables and data listings were prepared using SAS software Version 9.2 or higher. Overall differences in pharmacokinetic parameters of systemic exposure (e.g., Cmax and AUC) across the 3 different dosing regimens were evaluated by ANOVA. In general, significance was determined at the p<0.05 level. For continuous variables, descriptive statistics (sample size, mean, standard deviation, median, minimum, and maximum values) were determined. For discrete variables, frequency distributions were generated.

For series [3] the test system is unchanged. Nature of the series: Single ascending dose trial, 2-D echocardiography: right ventricular fractional area change (RV FAC). In kind it is in vivo, human. Particulars: for RV FAC Δ from baseline, Mean Active Group with 95% CI: Cohort 3, 0.25 mg/kg/hour IV 4-hour infusion. As for the experimental part: as §1, §2, §3, §4
The mark [4] stands for this setting: Cohort 3, 0.25 mg/kg/hour, 6 Hours.
[5] abbreviates: Cohort 3, 0.25 mg/kg/hour, 8 Hours.
[6] abbreviates: Cohort 3, 0.25 mg/kg/hour, 12 Hours.
Setting [7] is: Cohort 3, 0.25 mg/kg/hour, 24 Hours.
The mark [8] stands for this setting: Cohort 3, 0.25 mg/kg/hour, End-Dose.
Setting [9] is: Cohort 3, 0.25 mg/kg/hour, Mid-Dose.

For the substance 2′,6′-Dmt-D-Arg-Phe-Lys-NH2, the “penetration of the plasma membrane” value in series [1] is given as “readily penetrates the plasma membrane of several mammalian cell types in an energy-independent manner”.

For D-Arg-2′6′-Dmt-Lys-Phe-NH2, the “RVSP Δ from baseline, Mean Active Group” value in series [2] (Cohort 2, 0.05 mg/kg/hour IV 4-hour infusion, 6 Hours) is −4.8 mmHg; in series [2] (Cohort 2, 0.05 mg/kg/hour IV 4-hour infusion, 8 Hours) it was −6.5 mmHg; in series [2] (Cohort 2, 0.05 mg/kg/hour IV 4-hour infusion, 12 Hours) it was −5.6 mmHg; in series [2] (Cohort 2, 0.05 mg/kg/hour IV 4-hour infusion, 24 Hours) it was −5.3 mmHg; in series [2] (Cohort 2, 0.05 mg/kg/hour IV 4-hour infusion, End-Dose), −9.9 mmHg; in series [2] (Cohort 2, 0.05 mg/kg/hour IV 4-hour infusion, Mid-Dose), −8.5 mmHg. The “RVSP Δ from baseline, Mean Active Group” value in series [2] (Cohort 3, 0.25 mg/kg/hour IV 4-hour infusion, 6 Hours) is listed as −11.7 mmHg; in series [2] (Cohort 3, 0.25 mg/kg/hour IV 4-hour infusion, 8 Hours), −1.3 mmHg; in series [2] (Cohort 3, 0.25 mg/kg/hour IV 4-hour infusion, 12 Hours), 2.6 mmHg; in series [2] (Cohort 3, 0.25 mg/kg/hour IV 4-hour infusion, 24 Hours), −1.6 mmHg; in series [2] (Cohort 3, 0.25 mg/kg/hour IV 4-hour infusion, End-Dose), −1.2 mmHg; in series [2] (Cohort 3, 0.25 mg/kg/hour IV 4-hour infusion, Mid-Dose), 0.9 mmHg. The “RVSP Δ from baseline, Mean Difference (active vs pooled placebo)” value was −4.4 mmHg in series [2] (Cohort 2, 0.05 mg/kg/hour, 6 Hours); −4.4 mmHg in series [2] (Cohort 2, 0.05 mg/kg/hour, 8 Hours); −9.7 mmHg in series [2] (Cohort 2, 0.05 mg/kg/hour, 12 Hours); −5.0 mmHg in series [2] (Cohort 2, 0.05 mg/kg/hour, 24 Hours); −19.1 mmHg in series [2] (Cohort 2, 0.05 mg/kg/hour, End-Dose); −8.2 mmHg in series [2] (Cohort 2, 0.05 mg/kg/hour, Mid-Dose). The “RVSP Δ from baseline, Mean Difference (active vs pooled placebo)” value is −11.3 mmHg in series [2] (setting [4]); 0.9 mmHg in series [2] (setting [5]); −1.5 mmHg in series [2] (setting [6]); −1.3 mmHg in series [2] (setting [7]); −10.3 mmHg in series [2] (setting [8]); 1.1 mmHg in series [2] (setting [9]). The “pulmonary pressures (RVSP) relative to baseline, in words” value in series [2] (Cohort 2, 0.05 mg/kg/hour, at end dose) was “significant decrease in pulmonary pressures (RVSP)”. Besides, in series [3] (Cohort 3, 0.25 mg/kg/hour), the “right ventricular fractional area change (RV FAC), in words” value is “overall improvement in right ventricular fractional area change (RV FAC)”. Further, the “RV FAC Δ from baseline, Mean Active Group with 95% CI” value in series [3] (6 Hours) was 2.6 (−0.7, 5.9) %; in series [3] (8 Hours) it was 3.4 (−0.7, 7.5) %; in series [3] (12 Hours) it was 1.7 (−4.0, 7.4) %; in series [3] (24 Hours) it was 2.5 (−2.0, 7.0) %; in series [3] (End-Dose), 0.3 (−4.8, 5.5) %; in series [3] (Mid-Dose), 1.6 (−2.6, 5.8) %. In addition, the “RV FAC Δ from baseline, Mean Difference (active vs pooled placebo)” value in series [3] (setting [4]) came out at 3.8%; in series [3] (setting [5]) it was 4.6%; in series [3] (setting [6]), 8.9%; in series [3] (setting [7]), 3.8%; in series [3] (setting [8]), 0.3%; in series [3] (setting [9]), 3.8%.
